Results reported in patent publication US12110276B2 (Genentech, Inc., priority 2021, dated 2024).

Tests used:
[1] = molecular target: hNav1.5 sodium channels (Homo sapiens (Human), UniProt Q14524); assay: Cloned hNav1.5 sodium channels expressed in CHO cells, QPatch HT automated patch clamp; assay type: cell-based
Protocol: Example 183 A: Effects of Test Article on Cloned hNav1.5 Sodium Channels Expressed in Mammalian Cells
Chinese hamster ovary (CHO) cells expressing cloned hNav1.5 sodium channels (hNav1.5, encoded by the human SCNSA gene) are responsible for INa sodium channel current. From a 10 mM stock solution, test article was diluted to make a 1 mM, 0.1 mM, and 0.01 mM sub stock, which were stored frozen. All chemicals used in solution preparation were purchased from Sigma-Aldrich (St. Louis, MO) and were of ACS reagent grade purity or higher. Stock solutions of the test articles and the positive control were prepared in dimethyl sulfoxide (DMSO) and stored frozen. Test article and positive control concentrations were prepared fresh daily by diluting stock solutions into a HEPES-buffered physiological saline (HB-PS) solution (composition in mM): NaCl, 137; KCl, 4.0; CaCl2, 1.8; MgCl2, 1; HEPES, 10; Glucose, 10; pH adjusted to 7.4 with NaOH (refrigerated until use). […] Each test article formulation was sonicated (Model 2510/5510, Branson Ultrasonics, Danbury, CT) at room temperature for 20 minutes to facilitate dissolution. In preparation for the recording session, a glass-lined 96-well compound plate was loaded with the appropriate amounts of test and control solutions and placed in the plate well of the QPatch HT® (Sophion Bioscience A/S, Denmark), an automatic parallel patch clamp system. […]

[2] = molecular target: TEAD3 (Homo sapiens (Human), UniProt Q99594); assay: TR-FRET lipid pocket probe competition assay (Lipid HTRF), TEAD3; assay type: binding; conditions: 4 hours pre-incubation; read-out: Lipid HTRF TEAD3 IC50
Protocol: (§1) His-tagged TEAD proteins are pre-incubated with TEAD project compounds for 30 minutes or 4 hours at room temperature. Biotinylated lipid pocket probes are then added to the TEAD/Compound mixture and incubated for 60 minutes at room temperature. The lipid pocket probe competes with the test compound for the TEAD lipid pocket until equilibrium is reached. After 60 minutes, Europium labelled anti-His (Perkin Elmer #AD0110) and XL665 labelled streptavidin (CIS Bio 610SAXAC) are added to the TEAD/test compound/lipid pocket mixture and incubated for 30 minutes or 4 hours. […] If a TEAD lipid pocket binder such as binds and displaces the lipid pocket probe, the disruption of the TEAD:probe interaction results in a decrease in TR-FRET signal. The potency of compounds as TEAD lipid pocket binders is determined by IC50 value generated using a non-linear 4 parameter curve fit.

[3] = molecular target: TEAD4 (Homo sapiens (Human), UniProt Q15561); assay: TR-FRET lipid pocket probe competition assay (Lipid HTRF), TEAD4; assay type: binding; conditions: 4 hours pre-incubation; read-out: Lipid HTRF TEAD4 IC50;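 also: His-tagged TEAD4 with biotinylated lipid-pocket probe, read by Europium anti-His and XL665 streptavidin, where probe displacement lowers the TR-FRET signal, IC50 from a four-parameter fit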
[4] = molecular target: TEAD1 (Homo sapiens (Human), UniProt P28347); assay: TR-FRET lipid pocket probe competition assay (Lipid HTRF), TEAD1; assay type: binding; conditions: 4 hours pre-incubation; read-out: Lipid HTRF TEAD1 IC50;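 also: His-tagged TEAD1 with biotinylated probe, detected via Europium anti-His and XL665 streptavidin, probe displacement lowers TR-FRET signal, IC50 from four-parameter nonlinear fit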
Protocol: as §1

[5] = molecular target: TEAD2 (Homo sapiens (Human), UniProt Q15562);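 also: TR-FRET competition assay with His-tagged TEAD protein and a biotinylated lipid pocket probe, compound pre-incubated 30 min or 4 h at room temperature, displacement lowers signal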
TEAD2, sequence (Q15562 whole entry, species assumed): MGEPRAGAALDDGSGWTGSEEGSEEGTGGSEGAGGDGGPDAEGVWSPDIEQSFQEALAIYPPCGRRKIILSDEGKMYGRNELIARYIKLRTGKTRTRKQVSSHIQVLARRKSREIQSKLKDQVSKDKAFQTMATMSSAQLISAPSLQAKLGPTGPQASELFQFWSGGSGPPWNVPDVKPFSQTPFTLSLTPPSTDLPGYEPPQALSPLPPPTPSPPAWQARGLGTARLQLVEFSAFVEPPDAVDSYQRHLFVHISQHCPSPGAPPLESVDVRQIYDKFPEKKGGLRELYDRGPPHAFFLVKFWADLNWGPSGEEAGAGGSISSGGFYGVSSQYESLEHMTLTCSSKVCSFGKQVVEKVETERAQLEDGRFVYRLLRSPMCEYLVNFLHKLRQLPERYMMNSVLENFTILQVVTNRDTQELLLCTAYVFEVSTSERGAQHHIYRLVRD

hNav1.5 sodium channels, sequence (Q14524 whole entry): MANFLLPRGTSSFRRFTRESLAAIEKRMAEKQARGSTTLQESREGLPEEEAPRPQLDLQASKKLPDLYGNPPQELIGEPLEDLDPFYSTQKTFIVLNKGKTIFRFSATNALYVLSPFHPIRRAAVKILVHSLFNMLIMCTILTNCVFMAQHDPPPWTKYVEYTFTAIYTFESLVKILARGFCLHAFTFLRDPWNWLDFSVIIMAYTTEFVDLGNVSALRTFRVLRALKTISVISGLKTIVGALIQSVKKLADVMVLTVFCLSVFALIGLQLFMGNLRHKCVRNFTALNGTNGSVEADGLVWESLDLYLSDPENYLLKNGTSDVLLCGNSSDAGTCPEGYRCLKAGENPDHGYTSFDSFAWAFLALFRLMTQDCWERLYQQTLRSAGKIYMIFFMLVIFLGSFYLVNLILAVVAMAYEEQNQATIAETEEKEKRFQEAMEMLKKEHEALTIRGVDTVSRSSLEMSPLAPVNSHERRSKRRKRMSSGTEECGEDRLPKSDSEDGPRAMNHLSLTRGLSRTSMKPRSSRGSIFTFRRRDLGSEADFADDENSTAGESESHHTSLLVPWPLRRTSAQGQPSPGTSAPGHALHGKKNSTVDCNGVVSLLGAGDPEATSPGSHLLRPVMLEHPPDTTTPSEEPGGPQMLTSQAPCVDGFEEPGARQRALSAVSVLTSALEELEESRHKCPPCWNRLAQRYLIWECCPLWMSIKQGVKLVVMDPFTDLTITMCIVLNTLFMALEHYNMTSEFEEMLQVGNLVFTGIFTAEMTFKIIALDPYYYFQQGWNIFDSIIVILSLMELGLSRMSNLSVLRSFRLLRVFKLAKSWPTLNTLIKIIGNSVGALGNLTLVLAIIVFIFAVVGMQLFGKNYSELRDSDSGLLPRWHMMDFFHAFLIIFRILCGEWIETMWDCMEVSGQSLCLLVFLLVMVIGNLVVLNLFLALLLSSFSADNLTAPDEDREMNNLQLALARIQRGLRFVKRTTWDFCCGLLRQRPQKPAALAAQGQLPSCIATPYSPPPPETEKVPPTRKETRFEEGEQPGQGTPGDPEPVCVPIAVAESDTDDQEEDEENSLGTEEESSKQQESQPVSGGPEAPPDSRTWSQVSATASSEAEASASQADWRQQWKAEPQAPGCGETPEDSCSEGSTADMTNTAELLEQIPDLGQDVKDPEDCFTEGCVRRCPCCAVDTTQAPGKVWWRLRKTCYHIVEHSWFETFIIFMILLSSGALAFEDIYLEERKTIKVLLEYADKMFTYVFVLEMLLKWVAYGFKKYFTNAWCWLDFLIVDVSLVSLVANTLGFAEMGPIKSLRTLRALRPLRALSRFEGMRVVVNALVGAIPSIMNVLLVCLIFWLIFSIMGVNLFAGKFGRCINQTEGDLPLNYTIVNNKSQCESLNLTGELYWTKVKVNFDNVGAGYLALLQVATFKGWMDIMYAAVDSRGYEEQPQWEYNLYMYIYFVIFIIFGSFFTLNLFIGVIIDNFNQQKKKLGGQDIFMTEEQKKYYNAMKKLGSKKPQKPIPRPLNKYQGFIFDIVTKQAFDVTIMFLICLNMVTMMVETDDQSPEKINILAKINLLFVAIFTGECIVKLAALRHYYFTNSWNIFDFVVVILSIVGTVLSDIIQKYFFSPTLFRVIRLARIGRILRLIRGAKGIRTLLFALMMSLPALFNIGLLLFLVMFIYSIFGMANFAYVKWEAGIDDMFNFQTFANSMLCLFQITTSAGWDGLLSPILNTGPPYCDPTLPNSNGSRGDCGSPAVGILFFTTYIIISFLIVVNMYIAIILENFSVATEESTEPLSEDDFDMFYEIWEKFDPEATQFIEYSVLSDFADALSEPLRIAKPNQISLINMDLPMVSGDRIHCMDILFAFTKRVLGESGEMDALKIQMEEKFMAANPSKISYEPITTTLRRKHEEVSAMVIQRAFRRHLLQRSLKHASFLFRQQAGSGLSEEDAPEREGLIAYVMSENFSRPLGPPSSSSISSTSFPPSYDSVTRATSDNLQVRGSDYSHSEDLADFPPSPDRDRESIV
TEAD3, sequence (Q99594 whole entry, species assumed): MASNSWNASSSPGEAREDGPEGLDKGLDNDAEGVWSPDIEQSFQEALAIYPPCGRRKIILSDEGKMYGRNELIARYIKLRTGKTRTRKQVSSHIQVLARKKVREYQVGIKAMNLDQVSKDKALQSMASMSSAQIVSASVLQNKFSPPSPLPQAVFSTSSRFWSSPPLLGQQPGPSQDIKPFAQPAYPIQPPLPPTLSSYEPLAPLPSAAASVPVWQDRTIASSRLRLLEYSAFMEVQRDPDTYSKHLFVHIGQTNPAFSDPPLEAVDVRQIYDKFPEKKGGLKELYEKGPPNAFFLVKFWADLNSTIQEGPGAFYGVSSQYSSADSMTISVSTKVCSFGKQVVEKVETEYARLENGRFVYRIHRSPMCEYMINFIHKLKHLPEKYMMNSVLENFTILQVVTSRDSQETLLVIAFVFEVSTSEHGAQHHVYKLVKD
TEAD1, sequence (P28347 whole entry, species assumed): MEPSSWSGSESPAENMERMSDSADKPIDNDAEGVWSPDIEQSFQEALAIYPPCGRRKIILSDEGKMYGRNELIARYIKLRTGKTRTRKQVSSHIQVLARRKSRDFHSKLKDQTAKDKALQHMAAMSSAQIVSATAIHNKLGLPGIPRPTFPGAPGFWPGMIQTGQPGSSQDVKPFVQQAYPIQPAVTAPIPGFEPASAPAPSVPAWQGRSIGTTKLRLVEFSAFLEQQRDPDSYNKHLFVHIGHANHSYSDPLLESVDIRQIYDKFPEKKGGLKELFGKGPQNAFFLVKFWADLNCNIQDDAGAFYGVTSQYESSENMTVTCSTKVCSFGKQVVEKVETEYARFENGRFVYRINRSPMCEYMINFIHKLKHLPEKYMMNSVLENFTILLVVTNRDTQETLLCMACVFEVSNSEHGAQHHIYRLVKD
TEAD4, sequence (Q15561 whole entry, species assumed): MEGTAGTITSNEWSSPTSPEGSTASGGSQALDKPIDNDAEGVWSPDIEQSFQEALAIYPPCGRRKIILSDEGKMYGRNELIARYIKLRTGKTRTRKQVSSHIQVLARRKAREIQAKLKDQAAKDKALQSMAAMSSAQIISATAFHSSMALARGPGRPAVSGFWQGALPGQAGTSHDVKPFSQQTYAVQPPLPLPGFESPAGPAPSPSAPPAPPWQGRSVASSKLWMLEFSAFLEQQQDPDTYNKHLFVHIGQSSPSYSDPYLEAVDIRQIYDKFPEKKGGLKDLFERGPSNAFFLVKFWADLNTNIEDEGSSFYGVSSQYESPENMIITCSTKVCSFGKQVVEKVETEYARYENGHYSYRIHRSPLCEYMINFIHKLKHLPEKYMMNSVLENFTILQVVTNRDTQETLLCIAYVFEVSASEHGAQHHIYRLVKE

Question: Which IC50 ([1]; 0.01-100 uM, read-out: NaV1.5 (Phasic) IC50) does the source give for `C=C(F)C(=O)N1CC(c2nn(-c3ccc(OC(F)(F)F)cc3)c3nccc(CO)c23)C1` [Compound 20, 2-fluoro-1-[3-[4-(hydroxymethyl)-1-[4-(trifluoromethoxy)phenyl]pyrazolo[3,4-b]pyridin-3-yl]azetidin-1-yl]prop-2-en-1-one] here?
Answer: 42100 nM

Question: `C=CC(=O)NCc1nn(-c2ccc(OC(F)(F)F)cc2)c2nccc([C@H](O)CO)c12` [Compound 17, N-[[4-[(1S)-1,2-dihydroxyethyl]-1-[4-(trifluoromethoxy)phenyl]pyrazolo[3,4-b]pyridin-3-yl]methyl]prop-2-enamide] was tested. Which IC50 [2] did it give?
Answer: 770 nM

Question: What about the IC50 [3] of the same compound?
Answer: 20 nM

Question: What about the “NaV1.5 (Phasic) 10 uM concentration % inhibition” value ([1]; 10 uM, mean % inhibition, n>=2 cells) of the same compound?
Answer: 32.1%

Question: What about the IC50 [4] of the same compound?
Answer: 35 nM

Question: What about the IC50 [5] of the same compound?
Answer: 32 nM
